Reference: BigSolDB 2.1

COc1ccc2[nH]cc(CCNC(C)=O)c2c1
solubility (mole fraction)
Settings	278.15 K	283.15 K	288.15 K	293.15 K	298.15 K	303.15 K	308.15 K	313.15 K	318.15 K	323.15 K
in 2-ethoxyethanol	0.0643	0.0729	0.0809	0.0919	0.103	0.113	0.126	0.138	0.152	0.168
in 2-methoxyethanol	0.0729	0.0819	0.0921	0.103	0.115	0.129	0.142	0.159	0.173	0.191
in DMF	0.177	0.191	0.205	0.221	0.235	0.251	0.267	0.285	0.302	0.321
